Among the data in ChEMBL document CHEMBL5241122, “A concise review on marine bromopyrrole alkaloids as anticancer agents” (Bioorg Med Chem Lett, 2023) are IC50 values, retold here.

Holding throughout (format): functional, cell-based
The test system of one test is K562. The experiment in a line: Antiproliferative activity against human K562 cells incubated for 72 hrs by SRB assay. The note with it: K562, 72 h. A general note: Sulforhodamine B stains cellular protein and so reports cell mass.
The subject of another test is A549. The experiment in a line: Antiproliferative activity against human A549 cells incubated for 72 hrs by SRB assay. To be noted: A549, 72 h.
The test system of another test is HCT-116. The experiment in a line: Antiproliferative activity against human HCT-116 cells incubated for 72 hrs by SRB assay. To be noted: HCT-116, 72 h.
For the next test, the system named is MDA-MB-231. The experiment in a line: Antiproliferative activity against human MDA-MB-231 cells incubated for 72 hrs by SRB assay. The note with it: MDA-MB-231, 72 h.
The subject of another test is SNU-638. The experiment in a line: Antiproliferative activity against human SNU-638 cells incubated for 72 hrs by SRB assay. The note with it: SNU-638, 72 h.
The test system of another test is SK-HEP1. The experiment in a line: Antiproliferative activity against human SK-HEP1 cells incubated for 72 hrs by SRB assay. The note with it: SK-HEP1, 72 h.

As for `NC1=NC(=O)C([C@@H]2[C@@H](CNC(=O)c3cc(Br)c[nH]3)[C@H](CNC(=O)c3cc(Br)c[nH]3)[C@H]2C2NC(N)=NC2=O)N1` (stereo partly specified), the IC50 with K562 was 12.9 µM; in the test with A549, 31.3 µM; in the test on HCT-116 it was 9.93 µM; with MDA-MB-231 it was 32.8 µM; in the test with SNU-638 it was 7.92 µM; in the test on SK-HEP1, 35.2 µM.

A word on the IC50: it is the concentration that gives 50% inhibition.
